The values that follow are results of earlier work, collected in US4603142A, “Cholesterol lowering method of use” (Wisconsin Alumni Research Foundation, priority 1984, dated 1986).

For this series the following is noted: compared with tocotrienols; cited from earlier work.

As to Vitamin E, the Lowering of cholesterol entry is recorded as “does not cause a similar lowering of cholesterol”.
